Data reported in US8771665B2 (Cocrystal Discovery, Inc., priority 2010, dated 2014).
Read-outs that look alike come from different tables or passages of the source.

Target: T1, HCV1b NS5B polymerase delta 21 (Hepatitis C virus genotype 1b, UniProt P26663)
T1 construct: purified HCV1b NS5B polymerase delta 21
Test: RNA-Dependent RNA HCV NS5B (Polymerase) Assay and IC50 Determination
Type: biochemical
Experimental: RNA-Dependent RNA HCV NS5B (Polymerase) Assay and IC50 Determination
In vitro RNA-dependent RNA polymerase activity was determined in a reaction mixture (50 μL) containing 50 mM Tris-HCl, pH 7.5, 5 mM MgCl2, 1 mM dithiothreitol, 0.5% Triton® X-100, 10 μM of UTP, 0.1-0.5 μCi of α-^32P UTP (Perkin Elmer Life Sciences), 1 μg of polyA:U16 (Midland Oligo), and 0.6 μg of purified HCV1b NS5B polymerase delta 21. Different concentrations of compounds were added to the reaction mixtures. The reaction was carried out at RT (23° C.) for 60 min and then stopped by the addition of 100 μL of 50 mM EDTA. The reaction mixtures were filtered through either a DE81 membrane or a positively charged nylon membrane, and the membranes were then extensively washed with 30 mM sodium citrate, pH 7.0 and 300 mM NaCl. The radiolabeled RNA products were quantitated using a Storm™ Phosphorlmager™ (GE Life Sciences). IC50 values were calculated using GraFit 6 and GraphPad Prism 5 from triplicate assays.

T1 sequence (P26663 2420-2989): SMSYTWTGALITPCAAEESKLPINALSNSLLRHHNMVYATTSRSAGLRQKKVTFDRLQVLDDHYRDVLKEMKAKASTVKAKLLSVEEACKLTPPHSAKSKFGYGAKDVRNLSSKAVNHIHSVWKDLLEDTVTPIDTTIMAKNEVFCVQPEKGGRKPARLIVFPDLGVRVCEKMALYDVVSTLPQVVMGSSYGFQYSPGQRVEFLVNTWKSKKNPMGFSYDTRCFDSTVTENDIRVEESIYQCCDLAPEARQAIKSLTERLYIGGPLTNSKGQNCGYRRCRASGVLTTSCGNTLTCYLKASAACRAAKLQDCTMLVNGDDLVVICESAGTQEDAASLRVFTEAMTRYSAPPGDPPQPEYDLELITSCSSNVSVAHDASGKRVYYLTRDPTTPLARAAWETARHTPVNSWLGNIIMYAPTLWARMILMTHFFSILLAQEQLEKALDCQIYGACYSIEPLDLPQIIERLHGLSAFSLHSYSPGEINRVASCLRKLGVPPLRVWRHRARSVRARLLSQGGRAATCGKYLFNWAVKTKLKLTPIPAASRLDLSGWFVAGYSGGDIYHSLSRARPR

Row | Structure (SMILES) | IC50 [µM] | IC50 (purified HCV1b NS5B polymerase delta 21, polyA:U16, RT 60 min, triplicate assays) [µM]
1 | CCN1CCC(c2cc(-c3ccc(C(=O)Nc4ccccn4)cc3)sc2C(=O)O)=C(C2CCC(C)CC2)C1 (centres unmarked) [Example 062, 3-[1-Ethyl-5-(4-methyl-cyclohexyl)-1,2,3,6-tetrahydro-pyridin-4-yl]-5-[4-(pyridin-2-ylcarbamoyl)-phenyl]-thiophene-2-carboxylic acid] | < 3 | 
2 | CN1CCC(c2cc(-c3ccccc3)sc2C(=O)O)=C(CCC2CCCC2)C1 [Example 063, 3-[5-(2-Cyclopentyl-ethyl)-1-methyl-1,2,3,6-tetrahydro-pyridin-4-yl]-5-phenyl-thiophene-2-carboxylic acid] | > 10 | 
3 | CN1CCC(c2cc(-c3ccccc3)sc2C(=O)O)=C(C2CCC(C(F)(F)F)CC2)C1 (centres unmarked) [Example 064, 3-[1-Methyl-5-(4-trifluoromethyl-cyclohexyl)-1,2,3,6-tetrahydro-pyridin-4-yl]-5-phenyl-thiophene-2-carboxylic acid] | > 10 | 
4 | CC1CCC(C2=C(c3cc(C#CC(C)(C)C)sc3C(=O)O)CN(CC3CCOCC3)CC2)CC1 (centres unmarked) [Example 065, 5-(3,3-Dimethyl-but-1-ynyl)-3-[4-(4-methyl-cyclohexyl)-1-(tetrahydro-pyran-4-ylmethyl)-1,2,5,6-tetrahydro-pyridin-3-yl]-thiophene-2-carboxylic acid] | < 3 | 
5 | CCN1CCC(c2cc(-c3ccc(NC(=O)c4nccs4)cc3)sc2C(=O)O)=C(C2CCC(C)CC2)C1 (centres unmarked) [Example 066, 3-[1-Ethyl-5-(4-methyl-cyclohexyl)-1,2,3,6-tetrahydro-pyridin-4-yl]-5-{4-[(thiazole-2-carbonyl)-amino]-phenyl}-thiophene-2-carboxylic acid] | < 3 | 
6 | CC1CCC(C2=C(c3cc(-c4ccc(N(C)C(=O)c5cscn5)cc4)sc3C(=O)O)CCN(C)C2)CC1 (centres unmarked) [Example 067, 3-[1-Methyl-5-(4-methyl-cyclohexyl)-1,2,3,6-tetrahydro-pyridin-4-yl]-5-{4-[methyl-(thiazole-4-carbonyl)-amino]-phenyl}-thiophene-2-carboxylic acid] | 3 to 10 | 
7 | CC1CC=C(C2=C(c3cc(C#CC(C)(C)C)sc3C(=O)O)CCN(C)C2)CC1 (centres unmarked) [Example 068, 5-(3,3-Dimethyl-but-1-ynyl)-3-[1-methyl-5-(4-methyl-cyclohex-1-enyl)-1,2,3,6-tetrahydro-pyridin-4-yl]-thiophene-2-carboxylic acid] | < 3 | 
8 | CC1CC=C(C2=C(c3cc(-c4ccc(NC(=O)c5nccs5)cc4)sc3C(=O)O)CCN(C)C2)CC1 (centres unmarked) [Example 069, 3-[1-Methyl-5-(4-methyl-cyclohex-1-enyl)-1,2,3,6-tetrahydro-pyridin-4-yl]-5-{4-[(thiazole-2-carbonyl)-amino]-phenyl}-thiophene-2-carboxylic acid] | < 3 | 
9 | CC1CC=C(C2=C(c3cc(-c4ccc(-c5cc6ncccn6n5)cc4)sc3C(=O)O)CCN(C)C2)CC1 (centres unmarked) [Example 070, 3-[1-Methyl-5-(4-methyl-cyclohex-1-enyl)-1,2,3,6-tetrahydro-pyridin-4-yl]-5-(4-pyrazolo[1,5-a]pyrimidin-2-yl-phenyl)-thiophene-2-carboxylic acid] | < 3 | 
10 | CC(=O)N1CCC(c2cc(-c3ccccc3)sc2C(=O)O)=C(C2CCC(C)CC2)C1 (centres unmarked) [Example 071, 3-[1-Acetyl-5-(4-methyl-cyclohexyl)-1,2,3,6-tetrahydro-pyridin-4-yl]-5-phenyl-thiophene-2-carboxylic acid] | < 3 | 
11 | CC1CCC(C2=C(c3cc(-c4ccccc4)sc3C(=O)O)CCN(C(=O)c3ccccc3)C2)CC1 (centres unmarked) [Example 072, 3-[1-Benzoyl-5-(4-methyl-cyclohexyl)-1,2,3,6-tetrahydro-pyridin-4-yl]-5-phenyl-thiophene-2-carboxylic acid] | > 10 | 
12 | CC1CCC(C2=C(c3cc(-c4ccccc4)sc3C(=O)O)CCN(C(=O)OCc3ccccc3)C2)CC1 (centres unmarked) [Example 073] | > 10 | 
13 | COC(=O)N1CCC(c2cc(-c3ccccc3)sc2C(=O)O)=C(C2CCC(C)CC2)C1 (centres unmarked) [Example 074, 4-(2-Carboxy-5-phenyl-thiophen-3-yl)-5-(4-methyl-cyclohexyl)-3,6-dihydro-2H-pyridine-1-carboxylic acid methyl ester] | 3 to 10 | 
14 | CC1CCC(C2=C(c3cc(-c4ccccc4)sc3C(=O)O)CCN(C(=O)CCc3ccccc3)C2)CC1 (centres unmarked) [Example 076, 3-[5-(4-Methyl-cyclohexyl)-1-(3-phenyl-propanoyl)-1,2,3,6-tetrahydropyridin-4-yl]-5-phenyl-thiophene-2-carboxylic acid] | > 10 | 
15 | CCCC(=O)N1CCC(c2cc(-c3ccccc3)sc2C(=O)O)=C(C2CCC(C)CC2)C1 (centres unmarked) [Example 077, 3-[1-Butyryl-5-(4-methyl-cyclohexyl)-1,2,3,6-tetrahydro-pyridin-4-yl]-5-phenyl-thiophene-2-carboxylic acid] | 3 to 10 | 
16 | CC1CCC(C2=C(c3cc(-c4ccccc4)sc3C(=O)O)CCN(CCc3ccccc3)C2)CC1 (centres unmarked) [Example 078, 3-[5-(4-Methyl-cyclohexyl)-1-phenethyl-1,2,3,6-tetrahydro-pyridin-4-yl]-5-phenyl-thiophene-2-carboxylic acid] | > 10 | 
17 | CC1CCC(C2=C(c3cc(-c4ccccc4)sc3C(=O)O)CCN(Cc3ccccc3)C2)CC1 (centres unmarked) [Example 079, 3-[1-Benzyl-5-(4-methyl-cyclohexyl)-1,2,3,6-tetrahydro-pyridin-4-yl]-5-phenyl-thiophene-2-carboxylic acid] |  | 3 to 10
18 | CC1CCC(C2=C(c3cc(-c4ccccc4)sc3C(=O)O)CCN(CCCCc3ccccc3)C2)CC1 (centres unmarked) [Example 080, 3-[5-(4-Methyl-cyclohexyl)-1-(4-phenyl-butyl)-1,2,3,6-tetrahydro-pyridin-4-yl]-5-phenyl-thiophene-2-carboxylic acid] | > 10 | 
19 | CC1CCC(C2=C(c3cc(-c4ccccc4)sc3C(=O)O)CCN(CC(=O)O)C2)CC1 (centres unmarked) [Example 082, 3-[1-Carboxymethyl-5-(4-methyl-cyclohexyl)-1,2,3,6-tetrahydro-pyridin-4-yl]-5-phenyl-thiophene-2-carboxylic acid] | 3 to 10 | 
20 | CC1CCC(C2=C(c3cc(-c4ccccc4)sc3C(=O)O)CCN(CCC(=O)O)C2)CC1 (centres unmarked) [Example 083, 3-[1-(2-Carboxy-ethyl)-5-(4-methyl-cyclohexyl)-1,2,3,6-tetrahydro-pyridin-4-yl]-5-phenyl-thiophene-2-carboxylic acid] | 3 to 10 | 
21 | CC1CCC(C2=C(c3cc(-c4ccccc4)sc3C(=O)O)CCN(C(N)=O)C2)CC1 (centres unmarked) [Example 084, 3-[1-Carbamoyl-5-(4-methyl-cyclohexyl)-1,2,3,6-tetrahydro-pyridin-4-yl]-5-phenyl-thiophene-2-carboxylic acid] | < 3 | 
22 | CCNC(=O)N1CCC(c2cc(-c3ccccc3)sc2C(=O)O)=C(C2CCC(C)CC2)C1 (centres unmarked) [Example 085, 3-[1-Ethylcarbamoyl-5-(4-methyl-cyclohexyl)-1,2,3,6-tetrahydro-pyridin-4-yl]-5-phenyl-thiophene-2-carboxylic acid] | 3 to 10 | 
23 | CC1CCC(C2=C(c3cc(-c4ccccc4)sc3C(=O)O)CCN(Cc3ccc(Cl)cc3)C2)CC1 (centres unmarked) [Example 086, 3-[1-(4-Chloro-benzyl)-5-(4-methyl-cyclohexyl)-1,2,3,6-tetrahydro-pyridin-4-yl]-5-phenyl-thiophene-2-carboxylic acid] | 3 to 10 | 
24 | CC1CCC(C2=C(c3cc(-c4ccccc4)sc3C(=O)O)CCN(Cc3ccccn3)C2)CC1 (centres unmarked) [Example 087, 3-[5-(4-Methyl-cyclohexyl)-1-pyridin-2-ylmethyl-1,2,3,6-tetrahydro-pyridin-4-yl]-5-phenyl-thiophene-2-carboxylic acid] | < 3 | 
25 | Cc1cc(C)n2nc(CN3CCC(c4cc(-c5ccccc5)sc4C(=O)O)=C(C4CCC(C)CC4)C3)nc2n1 (centres unmarked) [Example 088, 3-[1-(5,7-Dimethyl-[1,2,4]triazolo[1,5-a]pyrimidin-2-ylmethyl)-5-(4-methyl-cyclohexyl)-1,2,3,6-tetrahydro-pyridin-4-yl]-5-phenyl-thiophene-2-carboxylic acid] | < 3 | 
26 | CC1CCC(C2=C(c3cc(-c4ccccc4)sc3C(=O)O)CCN(Cc3cccnc3)C2)CC1 (centres unmarked) [Example 089, 3-[5-(4-Methyl-cyclohexyl)-1-pyridin-3-ylmethyl-1,2,3,6-tetrahydro-pyridin-4-yl]-5-phenyl-thiophene-2-carboxylic acid] | < 3 | 
27 | CC1CCC(C2=C(c3cc(-c4ccccc4)sc3C(=O)O)CCN(Cc3ccncc3)C2)CC1 (centres unmarked) [Example 090, 3-[5-(4-Methyl-cyclohexyl)-1-pyridin-4-ylmethyl-1,2,3,6-tetrahydro-pyridin-4-yl]-5-phenyl-thiophene-2-carboxylic acid] | < 3 | 
28 | Cc1cc(C)n2nc(CCCN3CCC(c4cc(-c5ccccc5)sc4C(=O)O)=C(C4CCC(C)CC4)C3)nc2n1 (centres unmarked) [Example 091, 3-[1-[3-(5,7-Dimethyl-[1,2,4]triazolo[1,5-a]pyrimidin-2-yl)-propyl]-5-(4-methyl-cyclohexyl)-1,2,3,6-tetrahydro-pyridin-4-yl]-5-phenyl-thiophene-2-carboxylic acid] | < 3 | 
29 | CC1CCC(C2=C(c3cc(-c4ccccc4)sc3C(=O)O)CCN(Cc3nc4ncccn4n3)C2)CC1 (centres unmarked) [Example 092, 3-[5-(4-Methyl-cyclohexyl)-1-[1,2,4]triazolo[1,5-a]pyrimidin-2-ylmethyl-1,2,3,6-tetrahydro-pyridin-4-yl]-5-phenyl-thiophene-2-carboxylic acid] | 3 to 10 | 
